Source: the NIST ThermoML archive (doi:10.1016/j.fluid.2017.12.010)
± gives the expanded uncertainty stated by the source.

Assay: xn = mol fraction of the nth substance listed
Conditions: Liquid, Vibrating tube method

CCCCCCCCCCCC [dodecane] + CCCCCCCCCC
Conditions | mass density [kg/m3]
303.31 K, 1000 kPa, x2 = 0.2297 | 739 ± 3
303.32 K, 5000 kPa, x2 = 0.2297 | 742 ± 3
303.32 K, 10000 kPa, x2 = 0.2297 | 745 ± 3
303.33 K, 20000 kPa, x2 = 0.2297 | 752 ± 3
303.33 K, 30000 kPa, x2 = 0.2297 | 759 ± 3
303.34 K, 40000 kPa, x2 = 0.2297 | 765 ± 3
303.35 K, 100 kPa, x2 = 0.2297 | 738 ± 3
303.35 K, 60000 kPa, x2 = 0.2297 | 775 ± 3
303.35 K, 80000 kPa, x2 = 0.2297 | 785 ± 3
303.35 K, 100000 kPa, x2 = 0.2297 | 794 ± 3
303.39 K, 100 kPa, x2 = 0.4436 | 734 ± 3
303.39 K, 1000 kPa, x2 = 0.4436 | 735 ± 3
303.39 K, 5000 kPa, x2 = 0.4436 | 738 ± 3
303.39 K, 10000 kPa, x2 = 0.4436 | 742 ± 3
303.41 K, 20000 kPa, x2 = 0.4436 | 749 ± 3
303.41 K, 40000 kPa, x2 = 0.4436 | 761 ± 3
303.41 K, 80000 kPa, x2 = 0.4436 | 782 ± 3
303.41 K, 99990 kPa, x2 = 0.4436 | 791 ± 3
303.42 K, 30000 kPa, x2 = 0.4436 | 755 ± 3
303.42 K, 60000 kPa, x2 = 0.4436 | 772 ± 3
303.43 K, 100 kPa, x2 = 0.6433 | 730 ± 3
303.43 K, 1000 kPa, x2 = 0.6433 | 731 ± 3
303.43 K, 20000 kPa, x2 = 0.6433 | 745 ± 3
303.43 K, 30000 kPa, x2 = 0.6433 | 752 ± 3
303.43 K, 40000 kPa, x2 = 0.6433 | 758 ± 3
303.43 K, 60000 kPa, x2 = 0.6433 | 769 ± 3
303.43 K, 80000 kPa, x2 = 0.6433 | 779 ± 3
303.43 K, 100000 kPa, x2 = 0.6433 | 788 ± 3
303.44 K, 5000 kPa, x2 = 0.6433 | 734 ± 3
303.44 K, 10000 kPa, x2 = 0.6433 | 738 ± 3
303.45 K, 100 kPa, x2 = 0.7841 | 727 ± 3
303.45 K, 10000 kPa, x2 = 0.7841 | 735 ± 3
303.45 K, 20000 kPa, x2 = 0.7841 | 742 ± 3
303.45 K, 30000 kPa, x2 = 0.7841 | 749 ± 3
303.45 K, 40000 kPa, x2 = 0.7841 | 755 ± 3
303.45 K, 60000 kPa, x2 = 0.7841 | 766 ± 3
303.45 K, 80000 kPa, x2 = 0.7841 | 776 ± 3
303.45 K, 100000 kPa, x2 = 0.7841 | 785 ± 3
303.46 K, 1000 kPa, x2 = 0.7841 | 728 ± 3
303.47 K, 5000 kPa, x2 = 0.7841 | 731 ± 3
312.89 K, 100 kPa, x2 = 0 | 736 ± 3
312.89 K, 1000 kPa, x2 = 0 | 737 ± 3
312.9 K, 5000 kPa, x2 = 0 | 740 ± 3
312.9 K, 10000 kPa, x2 = 0 | 744 ± 3
312.9 K, 20000 kPa, x2 = 0 | 751 ± 3
312.9 K, 30000 kPa, x2 = 0 | 757 ± 3
312.9 K, 40000 kPa, x2 = 0 | 763 ± 3
312.9 K, 50000 kPa, x2 = 0 | 769 ± 3
312.9 K, 60000 kPa, x2 = 0 | 774 ± 3
312.9 K, 70000 kPa, x2 = 0 | 780 ± 3
312.9 K, 80000 kPa, x2 = 0 | 784 ± 3
312.9 K, 90000 kPa, x2 = 0 | 789 ± 3
312.9 K, 100000 kPa, x2 = 0 | 793 ± 3
313.23 K, 100 kPa, x2 = 0.2297 | 732 ± 3
313.24 K, 1000 kPa, x2 = 0.2297 | 732 ± 3
313.24 K, 5000 kPa, x2 = 0.2297 | 736 ± 3
313.24 K, 10000 kPa, x2 = 0.2297 | 740 ± 3
313.24 K, 20000 kPa, x2 = 0.2297 | 747 ± 3
313.24 K, 30000 kPa, x2 = 0.2297 | 753 ± 3
313.24 K, 40000 kPa, x2 = 0.2297 | 760 ± 3
313.24 K, 60000 kPa, x2 = 0.2297 | 771 ± 3
313.25 K, 80000 kPa, x2 = 0.2297 | 781 ± 3
313.25 K, 100000 kPa, x2 = 0.2297 | 790 ± 3
313.3 K, 30000 kPa, x2 = 0.4436 | 750 ± 3
313.3 K, 40000 kPa, x2 = 0.4436 | 756 ± 3
313.3 K, 100000 kPa, x2 = 0.4436 | 787 ± 3
313.31 K, 100 kPa, x2 = 0.4436 | 728 ± 3
313.31 K, 1000 kPa, x2 = 0.4436 | 729 ± 3
313.31 K, 10000 kPa, x2 = 0.4436 | 736 ± 3
313.31 K, 20000 kPa, x2 = 0.4436 | 743 ± 3
313.31 K, 60000 kPa, x2 = 0.4436 | 767 ± 3
313.31 K, 80000 kPa, x2 = 0.4436 | 778 ± 3
313.32 K, 5000 kPa, x2 = 0.4436 | 732 ± 3
313.36 K, 100 kPa, x2 = 0.6433 | 724 ± 3
313.36 K, 1000 kPa, x2 = 0.6433 | 725 ± 3
313.36 K, 10000 kPa, x2 = 0.6433 | 732 ± 3
313.36 K, 20000 kPa, x2 = 0.6433 | 740 ± 3
313.37 K, 100 kPa, x2 = 0.7841 | 721 ± 3
313.37 K, 1000 kPa, x2 = 0.7841 | 722 ± 3
313.37 K, 5000 kPa, x2 = 0.6433 | 728 ± 3
313.37 K, 5000 kPa, x2 = 0.7841 | 725 ± 3
313.37 K, 10000 kPa, x2 = 0.7841 | 729 ± 3
313.37 K, 30000 kPa, x2 = 0.6433 | 746 ± 3
313.37 K, 40000 kPa, x2 = 0.6433 | 753 ± 3
313.37 K, 40000 kPa, x2 = 0.7841 | 750 ± 3
313.37 K, 60000 kPa, x2 = 0.7841 | 762 ± 3
313.37 K, 80000 kPa, x2 = 0.7841 | 772 ± 3
313.38 K, 20000 kPa, x2 = 0.7841 | 737 ± 3
313.38 K, 30000 kPa, x2 = 0.7841 | 744 ± 3
313.38 K, 60000 kPa, x2 = 0.6433 | 764 ± 3
313.38 K, 80000 kPa, x2 = 0.6433 | 774 ± 3
313.38 K, 100000 kPa, x2 = 0.6433 | 784 ± 3
313.38 K, 100000 kPa, x2 = 0.7841 | 781 ± 3
322.83 K, 100 kPa, x2 = 0 | 727 ± 3
322.83 K, 1000 kPa, x2 = 0 | 728 ± 3
322.83 K, 5000 kPa, x2 = 0 | 732 ± 3
322.83 K, 10000 kPa, x2 = 0 | 736 ± 3
322.83 K, 20000 kPa, x2 = 0 | 743 ± 3
322.83 K, 30000 kPa, x2 = 0 | 750 ± 3
322.83 K, 40000 kPa, x2 = 0 | 756 ± 3
322.83 K, 50000 kPa, x2 = 0 | 762 ± 3
322.83 K, 60000 kPa, x2 = 0 | 768 ± 3
322.83 K, 70000 kPa, x2 = 0 | 773 ± 3
322.83 K, 80000 kPa, x2 = 0 | 778 ± 3
322.83 K, 90000 kPa, x2 = 0 | 783 ± 3
322.83 K, 100000 kPa, x2 = 0 | 787 ± 3
323.08 K, 100 kPa, x2 = 0.2297 | 723 ± 3
323.08 K, 1000 kPa, x2 = 0.2297 | 724 ± 3
323.08 K, 5000 kPa, x2 = 0.2297 | 727 ± 3
323.08 K, 10000 kPa, x2 = 0.2297 | 731 ± 3
323.08 K, 20000 kPa, x2 = 0.2297 | 739 ± 3
323.08 K, 30000 kPa, x2 = 0.2297 | 746 ± 3
323.08 K, 40000 kPa, x2 = 0.2297 | 752 ± 3
323.09 K, 100 kPa, x2 = 0.4436 | 719 ± 3
323.09 K, 60000 kPa, x2 = 0.2297 | 764 ± 3
323.09 K, 80000 kPa, x2 = 0.2297 | 774 ± 3
323.09 K, 100010 kPa, x2 = 0.2297 | 784 ± 3
323.1 K, 1000 kPa, x2 = 0.4436 | 720 ± 3
323.1 K, 5000 kPa, x2 = 0.4436 | 724 ± 3
